Counter-ions that a name gives are not always drawn. Like-named read-outs stand apart in the source and are kept apart here.
Tested on: C. elegans
Assay: microbe, parasite or virus in culture
Conditions: Caenorhabditis elegans
[1] = 0 h, read-out: Percentage of motility inhibition 0 h
[2] = 24 h, read-out: Percentage of motility inhibition 24 h
[3] = 0 h, read-out: Percentage of motility inhibition 0 h, Table S2, C. elegans SS assay, 110 μM, 0 h, averages of 4 data points
[4] = 24 h, read-out: Percentage of motility inhibition 24 h, Table S2, C. elegans SS assay, 110 μM, 24 h, averages of 4 data points

Row | SMILES | inhibition at 110 µM [1] | inhibition at 110 µM [2] | inhibition at 110 µM [3] | inhibition at 110 µM [4]
1 | C/C=C1\C(=O)C[C@H]2[C@@H]3CCC4=CC(=O)CC[C@]4(C)[C@H]3CC[C@]12C [Guggulsterone] | 0% | 17% | – | –
2 | O=C(O)C1=CCCNC1 [Guvacine hydrochloride] | – | – | 0% | 0%
3 | CC(C)=CCC[C@](C)(O[C@@H]1O[C@H](CO[C@@H]2O[C@H](CO)[C@@H](O)[C@H](O)[C@H]2O)[C@@H](O)[C@H](O)[C@H]1O)[C@H]1CC[C@]2(C)[C@@H]1[C@H](O)C[C@@H]1[C@@]3(C)CC[C@H](O[C@@H]4O[C@H](CO)[C@@H](O)[C@H](O)[C@H]4O)C(C)(C)[C@@H]3CC[C@]12C [Gypenoside XVII] | – | – | 4% | 4%
4 | CC1(C)CC[C@]2(C(=O)O)CC[C@]3(C)C(=CC[C@@H]4[C@@]5(C)CC[C@H](O)[C@@](C)(C=O)[C@@H]5CC[C@]43C)[C@@H]2C1 [Gypsogenin] | – | – | 10% | 10%
5 | O=C(CC1NCCCC1O)Cn1cnc2cc(Br)c(Cl)cc2c1=O (centres unmarked) [Halofuginone] | – | – | 18% | 11%
6 | Cc1nccc2c1[nH]c1ccccc12 [Harmane] | – | – | 0% | 6%
7 | COc1ccc2c(c1)[nH]c1c(C)nccc12 [Harmine] | 36% | 4% | – | –
8 | Cc1[nH]ccc2c1[nH]c1cc(=O)ccc12 [Harmol] | – | – | 0% | 0%
9 | C[C@]1(OC(=O)/C=C/c2ccccc2)C[C@@H](O)[C@]2(O)C=CO[C@@H](O[C@@H]3O[C@H](CO)[C@@H](O)[C@H](O)[C@H]3O)[C@@H]21 [Harpagoside] | – | – | 9% | 30%
10 | COC(=O)C[C@](O)(CCC(C)(C)O)C(=O)O[C@@H]1C(OC)=C[C@]23CCCN2CCc2cc4c(cc2[C@H]13)OCO4 [Harringtonine] | – | – | – | 0%
11 | C[C@@H]1O[C@@H](O[C@H]2[C@H](O[C@H]3CC[C@]4(C)[C@H]5CC=C6[C@@H]7CC(C)(C)CC[C@]7(C(=O)O)CC[C@@]6(C)[C@]5(C)CC[C@H]4C3(C)C)OC[C@H](O[C@@H]3O[C@H](CO)[C@@H](O)[C@H](O)[C@H]3O)[C@@H]2O)[C@H](O)[C@H](O)[C@H]1O [Hederacolchiside A1] | – | – | 0% | 0%
12 | CC1(C)CC[C@]2(C(=O)O)CC[C@]3(C)C(=CC[C@@H]4[C@@]5(C)CC[C@H](O)[C@@](C)(CO)[C@@H]5CC[C@]43C)[C@@H]2C1 [Hederagenin] | 30% | 21% | – | –
13 | C[C@@H]1O[C@@H](O[C@H]2[C@H](O[C@H]3CC[C@]4(C)[C@H]5CC=C6[C@@H]7CC(C)(C)CC[C@]7(C(=O)O[C@@H]7O[C@H](CO[C@@H]8O[C@H](CO)[C@@H](O[C@@H]9O[C@@H](C)[C@H](O)[C@@H](O)[C@H]9O)[C@H](O)[C@H]8O)[C@@H](O)[C@H](O)[C@H]7O)CC[C@@]6(C)[C@]5(C)CC[C@H]4C3(C)C)OC[C@H](O)[C@@H]2O)[C@H](O)[C@H](O)[C@H]1O [Hederasaponin B] | – | – | 11% | 3%
14 | O=c1c(O)c(-c2ccc(O)cc2)oc2c(O)c(O)cc(O)c12 [Herbacetin] | 4% | 13% | – | –
15 | COc1ccc([C@@H]2CC(=O)c3c(O)cc(O)cc3O2)cc1O [Hesperetin] | – | – | 21% | 5%
16 | CCCCC(O)(Cn1cncn1)c1ccc(Cl)cc1Cl (centres unmarked) [Hexaconazole] | – | – | 14% | 22%
17 | CCCCC(CC)CN1CN(CC(CC)CCCC)CC(C)(N)C1 (centres unmarked) [Hexetidine] | – | – | 46% | 39%
18 | O=C(O)[C@H]1O[C@@H](Oc2c(O)cc(O)c3c(=O)c(O)c(-c4ccc(O)c(O)c4)oc23)[C@H](O)[C@@H](O)[C@@H]1O [Hibifolin] | – | – | 6% | 1%
19 | COc1c(O)cc2oc(-c3ccc(O)cc3)cc(=O)c2c1O [Hispidulin] | 0% | 33% | – | –

Row | SMILES | inhibition at 110 µM [1] | inhibition at 110 µM [2] | inhibition at 110 µM [3] | inhibition at 110 µM [4]
20 | NCCc1c[nH]cn1 [Histamine] | – | – | 5% | 6%
21 | CN(C)CCc1ccc(O)cc1 [Hordenine] | – | – | 28% | 10%
22 | CC1=C[C@H]2Cc3[nH]c(=O)ccc3[C@]3(C1)NCCC[C@H]23 [Huperzine B] | 18% | 8% | – | –
23 | CCN(CC)CCNc1ccc(CO)c2sc3ccccc3c(=O)c12 [Hycanthone] | – | – | 31% | 26%
24 | COc1ccc2c(c1OC)C(=O)O[C@@H]2[C@H]1c2cc3c(cc2CCN1C)OCO3 [Hydrastine] | – | – | 0% | 19%
25 | CN1CCc2cc3c(cc2C1O)OCO3 (centres unmarked) [Hydrastinine] | – | – | 1% | 4%
26 | CC[C@H]1CN2CC[C@H]1C[C@H]2[C@H](O)c1ccnc2ccc(OC)cc12 [Hydroquinine] | – | – | 0% | 0%
27 | CCN(CCO)CCCC(C)Nc1ccnc2cc(Cl)ccc12 (centres unmarked) [Hydroxychloroquine sulfate] | – | – | 19% | 9%
28 | CN1C(=O)C(O)CC1c1cccnc1 (centres unmarked) [Hydroxycotinine] | – | – | 13% | 0%
29 | C[C@H](CCC(=O)O)[C@H]1CC[C@H]2[C@@H]3C[C@H](O)[C@@H]4C[C@H](O)CC[C@]4(C)[C@H]3CC[C@]12C [Hyodeoxycholic acid] | – | – | 2% | 18%
30 | COC[C@@]12CC[C@H](OC)[C@]34C(C([C@H](OC)[C@H]13)[C@]1(OC(C)=O)[C@H]3[C@@H](OC(=O)c5ccccc5)[C@](O)(C[C@H]34)[C@@H](OC)[C@@H]1O)N(C)C2 [Hypaconitine] | – | – | 0% | 6%
31 | C[N+](C)(C)[C@@H](Cc1c[nH]c2ccccc12)C(=O)[O-] [Hypaphorine] | – | – | 0% | 0%
32 | O=c1c(O[C@@H]2O[C@H](CO)[C@H](O)[C@H](O)[C@H]2O)c(-c2ccc(O)c(O)c2)oc2cc(O)cc(O)c12 [Hyperoside] | – | – | 14% | 11%
33 | COc1ccc(-c2oc3c(CC=C(C)C)c(O[C@@H]4O[C@H](CO)[C@@H](O)[C@H](O)[C@H]4O)cc(O)c3c(=O)c2O[C@@H]2O[C@@H](C)[C@H](O)[C@@H](O)[C@H]2O)cc1 [Icariin] | 30% | 12% | – | –
34 | COc1ccc(-c2oc3c(CC=C(C)C)c(O)cc(O)c3c(=O)c2O)cc1 [Icaritin] | – | – | 0% | 2%
35 | O=c1[nH]c(=O)n([C@H]2C[C@H](O)[C@@H](CO)O2)cc1I [Idoxuridine] | – | – | 38% | 11%
36 | C=CCOC(Cn1ccnc1)c1ccc(Cl)cc1Cl (centres unmarked) [Imazalil] | – | – | 35% | 36%
37 | O=C(NCNC(=O)NC1C(=O)NC(=O)N1CO)NC1C(=O)NC(=O)N1CO (centres unmarked) [Imidazolidinyl urea] | – | – | 28% | 10%
38 | O=C(O)CNCC(=O)O [Iminodiacetic acid] | – | – | 15% | 0%

Row | SMILES | inhibition at 110 µM [1] | inhibition at 110 µM [2] | inhibition at 110 µM [3] | inhibition at 110 µM [4]
39 | C/C1=C\C[C@]2(C(C)C)CC[C@@](C)(O2)[C@@H](O)CC/C(C)=C/CC1 [Incensole] | – | – | 2% | 29%
40 | O=C1Nc2ccccc2/C1=C1/Nc2ccccc2C1=O [Indirubin] | – | – | – | 6%
41 | c1ccc2[nH]ccc2c1 [Indole] | 13% | 9% | – | –
42 | NC(=O)Cc1c[nH]c2ccccc12 [Indole‐3‐acetamide] | – | – | 0% | 0%
43 | O=C(O)CCCc1c[nH]c2ccccc12 [Indole‐3‐butyric acid] | – | – | 2% | 0%
44 | OCc1c[nH]c2ccccc12 [Indole‐3‐carbinol] | – | – | 0% | 18%
45 | O=C(O)c1c[nH]c2ccccc12 [Indole‐3‐carboxylic acid] | – | – | 0% | 0%
46 | C/C=C(/C)C(=O)O[C@H]1C(C)=C[C@]23C(=O)[C@@H](C=C(CO)[C@@H](O)[C@]12O)[C@H]1[C@@H](C[C@H]3C)C1(C)C [Ingenol Mebutate] | – | – | 1% | 0%
47 | O=c1[nH]cnc2c1ncn2[C@@H]1O[C@H](CO)[C@@H](O)[C@H]1O [Inosine] | – | – | 34% | 10%
48 | COc1cc(-c2coc3cc(O)c(OC)c(O)c3c2=O)cc(O)c1OC [Irigenin] | – | – | 14% | 3%
49 | COc1cc(-c2coc3cc4c(c(OC)c3c2=O)OCO4)cc(OC)c1OC [Irisflorentin] | – | – | 26% | 34%
50 | COc1ccc(-c2coc3cc(O)c(OC)c(O)c3c2=O)cc1 [Irisolidone] | – | – | 0% | 0%
51 | O=C1Nc2ccccc2C1=O [Isatin] | – | – | 25% | 3%
52 | C[C@@H](c1nc(-c2ccc(C#N)cc2)cs1)[C@](O)(Cn1cncn1)c1cc(F)ccc1F [Isavuconazole] | – | – | 25% | 0%
53 | C=C1C(=O)O[C@@H]2C[C@@]3(C)CCCC(=C)[C@@H]3C[C@H]12 [Isoalantolactone] | – | – | 2% | 12%
54 | CC(C)=CCc1c(O)ccc(C(=O)/C=C/c2ccc(O)cc2)c1O [Isobavachalcone] | – | – | 6% | 15%
55 | C=C[C@H]1CN2CC[C@@]3(C(=O)Nc4ccccc43)[C@@H]2C[C@@H]1/C(=C\OC)C(=O)OC [Isocorynoxeine] | – | – | 0% | 0%
56 | C=C1C[C@]2(O)O[C@@]3(CC2=C(C)C)[C@@H](C)CC[C@@H]13 [Isocurcumenol] | – | – | 5% | 24%

— publication PMC11855827, “High-Throughput Screening of Five Compound Libraries for Anthelmintic Activity and Toxicity Leads to the Discovery of Two Flavonoid Compounds” (International Journal of Molecular Sciences, 2025)
